In series [1] the target is T1, Human collagenase (MMP-1) (Homo sapiens, UniProt P03956).
T1 sequence (P03956 101-269): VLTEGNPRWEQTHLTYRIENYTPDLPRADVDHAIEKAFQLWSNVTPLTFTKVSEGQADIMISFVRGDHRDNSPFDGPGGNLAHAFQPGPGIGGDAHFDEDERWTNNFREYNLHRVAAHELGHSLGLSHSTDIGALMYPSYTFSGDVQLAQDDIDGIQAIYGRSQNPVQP
As to the kind of experiment: Biochemical assay (Protocol A), Ki at steady state, MMP-1. As to conditions: preincubation, 37° C., pH=7.4, read-out: Ki at steady state (Ki*) for inhibition of MMP-1. The protocol:
(§1) Human gelatinase-A (MMP-2) was obtained as pro-enzyme (72 kDa) and was activated with 1 mM 4-aminophenylmercuric acetate for 30 min at 37° C. immediately prior to use. Human stromelysin-1-255 (MMP-3) was obtained as a recombinant pro-enzyme isolated from E. coli and activated by heat (1 h, 55° C.).
(§2) The substrate was the commercial quenched-fluorescence peptide Mca-Pro-Leu-Gly-Leu-Dpa-Ala-Arg-NH2, that is (7-methoxycoumarin4-yl)Acetyl-Pro-Leu-Glv-Leu-(3-[2,4-dinitrophenyl]-L-2,3-diamino-propionyl)-Ala-Arg-NH2 (C. G. Knight et al., FEBS Lett.296:263, 1992). The enzymes cleave at the Gly-Leu bond, removing the internally quenching Dpa group. Release of the highly fluorescent peptide Mca-Pro-Leu was followed fluorimetrically at 37° C. using a Perkin Elmer LS-50 Fluorescence Spectrophotometer fitted with a thermostatted four position stirring cell changer. The excitation wavelength was set at 326 nm (bandwidth 5 nm) and the emission at 392 nm (bandwidth 20 nm). Km values of this substrate for the three MMP's is 70 μM or more (Knight et al., reference above). Substrate concentration was 2 μM in the tests, so that we could approximate to unit the term (1+[substrate]/KM) in calculations. The substrate was stable for over 60 minutes in the assay conditions, giving no appreciable increment of fluorescence. Full response was adjusted against 200 nM Mca-Pro-Leu-OH (the released fluorescent peptide) and the instrument was calibrated in the range 0-100 nM Mca-Pro-Leu-OH, corresponding to 0-5% extent of hydrolysis of the 2 μM substrate. The aqueous assay buffer was 50 mM Tris/HCl pH=7.4 containing 0.15 M NaCl, 10 mM CaCl2, 0.01 mM ZnCl2 and 0.05% Brij 35. The concentration of the activated enzyme was determined by titration against representative inhibitors described in the literature and synthesized in house: Roche Ro31-9790 (N. G. Knebel et al., J. Chromatogr. B 673:213, 1995) for MMP-1, and Celltech CT-1418 (compound 1 in S. K. Chander, J. Pharm. Sci. 84:404, 1995) for MMP-2 and MMP-3. Enzyme concentrations in the tests were set at 1.0 nM for MMP-1, 0.04 nM for MMP-2, and 3.0 nM for M-3. Under our assay conditions, we measured keat/KM values of 26900, 669000 and 9740 1/(M×s) for MMP-1, MMP-2 and MMP-3, respectively. All the three enzymes were found stable for over three hours in the assay conditions.
(§3) The inhibition constant for compounds of the present invention was measured at steady state (Ki*; see J. F. Morrison and C. T. Walsh, Adv. Enzymol. Relat. Areas Mol. Biol. 61:201, 1988), upon preincubation experiment, by measuring V0, the initial rate in the absence of inhibitor, and Vs, the steady-state velocity, at different concentrations of inhibitors in the region of their enzyme-inhibitor dissociation constants.
(§4) On a routine basis, 1.94 mL of assay buffer was pre-heated at 37° C. in a vial, 0.02 mL of inhibitor in DMSO (or DMSO only), and 0.02 ml of 100 nM MMP-1 or 4 nM MMP-2 or 300 nM MMP-3 were added, mixed, and the vial was held at 37° C. for 5-180 minutes. Then 0.02 ml of 0.2 mM substrate was added, mixed and transferred into a pre-heated cell. The sample was allowed to equilibrate in the cuvette for 3-5 min at 37° C. against small changes in temperature and changes in the enzyme-inhibitor equilibria related to addition of substrate. After that, the linear increase of fluorescence was monitored over 3-5 min, and the slope (Vo or Vs) was obtained. Inhibitor concentrations were varied to collect data over Vs/Vo ratio ranging from 0.05 to 0.95. The values of Ki* were calculated by nonlinear weighted regression to the tight-binding equation according to Morrison and Walsh above:
(§5) Vs/Vo=[1/(2×Et)]×SQR[(Ki*+It−Et)^2+4×Ki*×Et]−(Ki*+It−Et)
(§6) wherein Et is the total enzyme concentration, and It is the total inhibitor concentration. The following Table I lists Ki* obtained for some representative examples: […]

Series [2] has as its target T2, Human stromelysin-1-255 (MMP-3) (Homo sapiens, UniProt P08254).
T2 construct: host or cells: E. coli
Description: Biochemical assay (Protocol A), Ki at steady state, MMP-3. The following applies: preincubation, 37° C., pH=7.4, read-out: Ki at steady state (Ki*) for inhibition of MMP-3. The protocol:
as §1, §2, §3, §4, §5, §6

Series [3] in a line: Aqueous solubility. In kind it is physicochemical. As to conditions: 25° C.; for solubility: water.
Series [4] has as its target T3, Human gelatinase-A (MMP-2) (Homo sapiens, UniProt P08253).
T3 sequence (P08253 110-660): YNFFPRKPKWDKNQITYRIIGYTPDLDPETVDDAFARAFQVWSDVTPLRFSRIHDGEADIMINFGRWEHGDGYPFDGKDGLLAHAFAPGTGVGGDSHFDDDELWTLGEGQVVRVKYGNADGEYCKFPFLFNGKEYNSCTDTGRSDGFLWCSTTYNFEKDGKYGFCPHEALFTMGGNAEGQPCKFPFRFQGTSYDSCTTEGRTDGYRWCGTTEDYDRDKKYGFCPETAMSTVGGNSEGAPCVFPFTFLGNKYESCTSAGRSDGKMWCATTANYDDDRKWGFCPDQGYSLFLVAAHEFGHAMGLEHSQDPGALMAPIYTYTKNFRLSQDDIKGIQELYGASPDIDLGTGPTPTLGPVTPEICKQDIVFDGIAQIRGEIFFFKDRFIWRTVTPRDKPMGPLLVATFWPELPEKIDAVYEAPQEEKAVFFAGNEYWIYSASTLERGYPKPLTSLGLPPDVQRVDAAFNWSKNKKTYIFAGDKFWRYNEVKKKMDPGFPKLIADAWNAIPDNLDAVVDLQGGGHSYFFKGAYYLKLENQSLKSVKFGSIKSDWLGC
Description: Biochemical assay (Protocol A), Ki at steady state, MMP-2. The following applies: preincubation, 37° C., pH=7.4, read-out: Ki at steady state (Ki*) for inhibition of MMP-2. The protocol:
as §1, §2, §3, §4, §5, §6

The nature of series [5]: PK parameters, oral route, rat. In kind it is in vivo. As to conditions: plasma, 10-15 mg/kg; for bioavailability: dose-normalised ratio of oral to i.v. mean AUC, read-out: % F (oral bioavailability); for Cmax: read-out: Cmax. The protocol: As an additional example, Table 4 reports the maximum plasma concentration (Cmax) and oral bioavailability (% F; calculated from dose-normalised ratio of oral to i.v. mean AUC values) after oral administration to rats or cynomolgus monkeys of a […] of some representative compounds of the present invention.

The nature of series [6]: PK parameters in rats, iv route. As to conditions: rat, in vivo, 10-15 mg/kg. The protocol: As a further example, Table 3 reports clearance and AUC values measured after intravenous administration to rats of a […] of some representative compounds of the present invention.

The Ki is a measure of affinity in units of concentration, obtained from inhibition or displacement. Broadly, the solubility is the dissolved amount per volume that the medium holds. Read a high solubility as a readily soluble substance. For orientation: bioavailability means the share of a dose that reaches the circulation, judged against a reference dose that is usually intravenous. What is called Cmax is the maximum level reached in the sampled fluid or tissue. By AUC is commonly meant concentration integrated over time. A lower AUC goes with low exposure. Usually clearance stands for the rate of elimination divided by the concentration. A high value points to efficient removal. As a reminder, the Aqueous solubility is the dissolved amount per volume that the medium holds. Low readings indicate a poorly soluble substance, high ones a readily soluble substance.

Values after ≈ are worked out from the molar mass of the structure shown.

T2 sequence (P08254 100-255 limits assumed): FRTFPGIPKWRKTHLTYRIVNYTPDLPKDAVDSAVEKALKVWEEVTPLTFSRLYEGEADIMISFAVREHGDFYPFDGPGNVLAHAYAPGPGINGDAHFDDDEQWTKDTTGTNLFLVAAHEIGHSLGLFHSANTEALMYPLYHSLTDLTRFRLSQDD

Regarding `CC(C)C[C@@H](C(=O)N1CCCCC1)[C@H](NC(=O)OC(C)(C)C)C(=O)NO` [Example 2, (3S-tert-Butoxycarbonylamino-4-hydroxyamino-2R-isobutyl)succinyl-piperidinamide], the figures for the inhibition constant Ki in series [1], in series [2] and in series [4] were 1100 nM, 13000 nM and 2800 nM, respectively. This compound also returned a solubility in series [3] (Conditions A) of more than 4500 µg/mL.
The like results for `CC(C)C[C@@H](C(=O)N1CCCCC1)[C@H](N)C(=O)NO` [Example 3, (3S-Amino-4-hydroxyamino-2R-isobutyl)succinyl-piperidinamide] were, in that order, 88 nM, 2500 nM, 290 nM and more than 9500 µg/mL.
For `CC(C)C[C@@H](C(=O)N1CCCCC1)[C@@H](C(=O)NO)N(C)C` [Example 5, (3SN,N-Dimethylamino-4-hydroxyamino-2R-isobutyl)succinyl-piperidinamide], the inhibition constant (Ki) in series [1] was 61 nM; in series [2], 940 nM; in series [4], 310 nM. Moreover, the solubility in series [3] (Conditions B) was more than 6000 µg/mL.
For `COc1ccc(S(=O)(=O)N[C@H](C(=O)NO)[C@@H](CC(C)C)C(=O)N2CCCCC2)cc1` [Example 7, (4-Hydroxyamino-3S-(4-methoxyphenylsulfonyl)amino-2R-isobutyl)succinyl-piperidin-amide], the figures for the Ki in series [1], in series [2] and in series [4] were 70 nM, 720 nM and 250 nM, respectively. Besides, the solubility in series [3] (Conditions A) worked out at 4000 µg/mL (≈ 9.06 mM).
For `CC(C)C[C@@H](C(=O)N1CCOCC1)[C@H](N)C(=O)NO` [Example 10, (3S-Amino-4-hydroxyamino-2R-isobutyl)succinyl-morpholinamide], the inhibition constant (Ki) in series [1] was 180 nM; in series [2] it was 2200 nM; in series [4] it was 340 nM. Also, the bioavailability in series [5] is 28%. In addition, the Cmax in series [5] was found to be 2120 ng/mL. In series [6], this compound showed an AUC of 11100 ng·h/mL. Further, the clearance in series [6] amounted to 24 mL/min/kg.
`COc1ccc(CCC[C@@H](C(=O)N2CCOCC2)[C@H](NC(=O)OC(C)(C)C)C(=O)O)cc1` [Example 13, (3S-tert-Butoxycarbonylamino-4-hydroxy-2R-(4-methoxy)phenpropyl)succinyl-morpholinamide] came in with an Aqueous solubility in series [3] (Conditions A) of 6710 µg/mL.
As for `COc1ccc(CCC[C@@H](C(=O)N2CCOCC2)[C@H](N)C(=O)O)cc1` [Example 14, (3S-Amino-4-hydroxy-2R-(4-methoxy)phenpropyl)succinyl-morpholinamide], the Aqueous solubility in series [3] (Conditions B) was more than 14000 µg/mL.
For `COc1ccc(CCC[C@@H](C(=O)N2CCOCC2)[C@H](N)C(=O)NO)cc1` [Example 16, (3S-Amino-4-hydroxyamino-2R-(4-methoxy)phenpropyl)succinyl-morpholinamide], the results for the Ki in series [1], in series [2] and in series [4] were 6400 nM, 2400 nM and 94 nM, respectively. Besides, the solubility in series [3] (Conditions B) is more than 9600 µg/mL.
The like results for `COc1ccc(CCC[C@@H](C(=O)N2CCCCC2)[C@H](N)C(=O)NO)cc1` [Example 18, (3S-Amino-4-hydroxyamino-2R-(4-methoxy)phenpropyl)succinyl-piperidinamide] were, in that order, 850 nM, 860 nM, 79 nM and more than 9600 µg/mL.
With `COc1ccc(CCC[C@@H](C(=O)N2CCOCC2)[C@@H](C(=O)NO)N(C)C)cc1` [Example 19, (3S-N,N-Dimethylamino-4-hydroxyamino-2R-(4-methoxy)phenpropyl)succinyl-morpholinamide], the values for the inhibition constant Ki in series [1], in series [2] and in series [4] were 4500 nM, 1100 nM and 230 nM, respectively. The same compound showed a solubility in series [3] (Conditions A) of 7500 µg/mL (≈ 19.1 mM). Also, the exposure (AUC) in series [6] was 9380 ng·h/mL. The same compound gave a clearance in series [6] of 27 mL/min/kg.
For the compound `N[C@H](C(=O)NO)[C@@H](CC1CCCC1)C(=O)N1CCCCC1` [Example 22, (3S-Amino-2R-cyclopentylmethyl-4-hydroxyamino)succinyl-piperidinamide], the inhibitory constant (Ki) in series [1] came to 15 nM; in series [2] it was 730 nM; in series [4] it was 67 nM. Besides, in series [5], the bioavailability is 62%. In series [5], the Cmax is 5490 ng/mL. The solubility in series [3] (Conditions B) is more than 8200 µg/mL.
For the compound `COc1ccc(CCC[C@@H](C(=O)N2CCN(c3ccccn3)CC2)[C@H](N)C(=O)NO)cc1` [Example 42, (3S-Amino-4-hydroxyamino-2R-(4-methoxy)phenpropyl)succinyl-4-(2-pyridyl)piperazinamide], the inhibition constant Ki in series [1] was found to be 1400 nM; in series [2], 760 nM; in series [4], 16 nM.
On to `CNC(=O)[C@H](Cc1ccccc1)N(C)C(=O)[C@H](CC(C)C)[C@H](N)C(=O)NO` [Example 44, (3S-Amino-4-hydroxyamino-2R-isobutyl)succinyl-N-methyl-N-(1S-methylaminocarbonyl-2-phenyl)ethylamide], for which the Ki in series [1] came to 8.9 nM; in series [2], 210 nM; in series [4], 2.3 nM.
Taken in the same sequence, the figures for `CS(=O)(=O)N[C@H](C(=O)NO)[C@@H](CC1CCCC1)C(=O)N1CCN(Cc2ccc3c(c2)OCO3)CC1` [Example 47, (2R-Cyclopentylmethyl-4-hydroxyamino-3S-(methylsulfonyl)amino)succinyl-(4-piperonyl)piperazinamide] were 4.6 nM, 140 nM and 28 nM.

The values above are taken from patent publication US6482827B1, “Matrix metalloproteinase inhibitors” (Pharmacia & Upjohn S.p.A., priority 1997, dated 2002).
